ChEMBL document CHEMBL1147725, “Identification and biological characterization of 6-aryl-7-isopropylquinazolinones as novel TRPV1 antagonists that are effective in models of chronic pain” (J Med Chem, 2006)

What was measured:
Rattus norvegicus [1] = test: Concentration in rat brain at 1 mg/kg, iv after 6 hrs; format: ADME, organism-based, Wistar Han; set-up: dose 1 mg/kg, route intravenous; details: in vivo
Rattus norvegicus [2] = test: Concentration in rat brain at 1 mg/kg, iv after 1 hrs; format: ADME, organism-based, Wistar Han; set-up: dose 1 mg/kg, route intravenous; details: in vivo
[3] = Plasma concentration in rat at 3 mg/kg, po after 0.16 hrs; format: ADME, organism-based; set-up: dose 3 mg/kg, route oral; details: Wistar Han
[4] = Permeability across Caco-2 cell membrane; format: ADME, cell-based; details: human, read-out: permeability (converted)
[5] = target: Transient receptor potential cation channel subfamily V member 1 (Rattus norvegicus) (UniProt O35433); test: Effect on capsaicin induced mechanical hyperalgesia in rat; format: functional
[6] = target: Transient receptor potential cation channel subfamily V member 1 (Rattus norvegicus) (UniProt O35433); test: Effect on inflammatory mechanical hyperalgesia in rat at 1 hr; format: functional
[7] = target: Transient receptor potential cation channel subfamily V member 1 (Rattus norvegicus) (UniProt O35433); test: Effect on neuropathic mechanical hyperalgesia in rat at 1 hr; format: functional
[8] = Cmax in rat plasma at 3 mg/kg, po; format: ADME, organism-based; set-up: dose 3 mg/kg, route oral; details: Wistar Han
[9] = Tmax in rat plasma at 3 mg/kg, po; format: ADME, organism-based; set-up: dose 3 mg/kg, route oral; details: Wistar Han
Rattus norvegicus [10] = test: Cmax in rat brain at 1 mg/kg, iv; format: ADME, organism-based, Wistar Han; set-up: dose 1 mg/kg, route intravenous; details: in vivo
[11] = Tmax in rat brain at 1 mg/kg, iv; format: ADME, organism-based; set-up: dose 1 mg/kg, route intravenous; details: Wistar Han
Rattus norvegicus [12] = test: Cmax in rat brain at 3 mg/kg, po; format: ADME, organism-based, Wistar Han; set-up: dose 3 mg/kg, route oral; details: in vivo
[13] = Tmax in rat brain at 3 mg/kg, po; format: ADME, organism-based; set-up: dose 3 mg/kg, route oral; details: Wistar Han
[14] = Terminal half life in rat at 1 mg/kg, iv; format: ADME, organism-based; set-up: dose 1 mg/kg, route intravenous; details: Wistar Han, in vivo, read-out: beta t1/2 (converted)
[15] = Terminal half life in rat at 3 mg/kg, po; format: ADME, organism-based; set-up: dose 3 mg/kg, route oral; details: Wistar Han, in vivo, read-out: beta t1/2 (converted)
[16] = Clearance in rat at 1 mg/kg, iv; format: ADME, organism-based; set-up: dose 1 mg/kg, route intravenous; details: Wistar Han, in vivo
[17] = Volume of distribution in rat at 1 mg/kg, iv; format: ADME, organism-based; set-up: dose 1 mg/kg, route intravenous; details: Wistar Han, in vivo, read-out: Vdss
[18] = Oral Bioavailability in rat at 3mg/kg; format: ADME, organism-based; details: Wistar Han, in vivo
[19] = Plasma concentration in rat at 1 mg/kg, iv after 0.033 hrs; format: ADME, organism-based; set-up: dose 1 mg/kg, route intravenous; details: Wistar Han
[20] = Plasma concentration in rat at 1 mg/kg, iv after 0.083 hrs; format: ADME, organism-based; set-up: dose 1 mg/kg, route intravenous; details: Wistar Han
[21] = Plasma concentration in rat at 1 mg/kg, iv after 0.16 hrs; format: ADME, organism-based; set-up: dose 1 mg/kg, route intravenous; details: Wistar Han
[22] = Plasma concentration in rat at 1 mg/kg, iv after 0.5 hrs; format: ADME, organism-based; set-up: dose 1 mg/kg, route intravenous; details: Wistar Han
[23] = Plasma concentration in rat at 1 mg/kg, iv after 1 hrs; format: ADME, organism-based; set-up: dose 1 mg/kg, route intravenous; details: Wistar Han
[24] = Plasma concentration in rat at 1 mg/kg, iv after 1.5 hrs; format: ADME, organism-based; set-up: dose 1 mg/kg, route intravenous; details: Wistar Han
[25] = Plasma concentration in rat at 1 mg/kg, iv after 2 hrs; format: ADME, organism-based; set-up: dose 1 mg/kg, route intravenous; details: Wistar Han
[26] = Plasma concentration in rat at 1 mg/kg, iv after 4 hrs; format: ADME, organism-based; set-up: dose 1 mg/kg, route intravenous; details: Wistar Han
[27] = Plasma concentration in rat at 1 mg/kg, iv after 6 hrs; format: ADME, organism-based; set-up: dose 1 mg/kg, route intravenous; details: Wistar Han
Rattus norvegicus [28] = test: Concentration in rat brain at 1 mg/kg, iv after 0.033 hrs; format: ADME, organism-based, Wistar Han; set-up: dose 1 mg/kg, route intravenous; details: in vivo
Rattus norvegicus [29] = test: Concentration in rat brain at 1 mg/kg, iv after 0.083 hrs; format: ADME, organism-based, Wistar Han; set-up: dose 1 mg/kg, route intravenous; details: in vivo
Rattus norvegicus [30] = test: Concentration in rat brain at 1 mg/kg, iv after 0.5 hrs; format: ADME, organism-based, Wistar Han; set-up: dose 1 mg/kg, route intravenous; details: in vivo
Rattus norvegicus [31] = test: Concentration in rat brain at 1 mg/kg, iv after 1.5 hrs; format: ADME, organism-based, Wistar Han; set-up: dose 1 mg/kg, route intravenous; details: in vivo
Rattus norvegicus [32] = test: Concentration in rat brain at 1 mg/kg, iv after 2 hrs; format: ADME, organism-based, Wistar Han; set-up: dose 1 mg/kg, route intravenous; details: in vivo
[33] = Plasma concentration in rat at 3 mg/kg, po after 0.5 hrs; format: ADME, organism-based; set-up: dose 3 mg/kg, route oral; details: Wistar Han
[34] = Plasma concentration in rat at 3 mg/kg, po after 1 hrs; format: ADME, organism-based; set-up: dose 3 mg/kg, route oral; details: Wistar Han
[35] = Plasma concentration in rat at 3 mg/kg, po after 1.5 hrs; format: ADME, organism-based; set-up: dose 3 mg/kg, route oral; details: Wistar Han
[36] = Plasma concentration in rat at 3 mg/kg, po after 2 hrs; format: ADME, organism-based; set-up: dose 3 mg/kg, route oral; details: Wistar Han
[37] = Plasma concentration in rat at 3 mg/kg, po after 4 hrs; format: ADME, organism-based; set-up: dose 3 mg/kg, route oral; details: Wistar Han
[38] = Plasma concentration in rat at 3 mg/kg, po after 6 hrs; format: ADME, organism-based; set-up: dose 3 mg/kg, route oral; details: Wistar Han

Sequence of Transient receptor potential cation channel subfamily V member 1 (Rattus norvegicus) (O35433 whole entry): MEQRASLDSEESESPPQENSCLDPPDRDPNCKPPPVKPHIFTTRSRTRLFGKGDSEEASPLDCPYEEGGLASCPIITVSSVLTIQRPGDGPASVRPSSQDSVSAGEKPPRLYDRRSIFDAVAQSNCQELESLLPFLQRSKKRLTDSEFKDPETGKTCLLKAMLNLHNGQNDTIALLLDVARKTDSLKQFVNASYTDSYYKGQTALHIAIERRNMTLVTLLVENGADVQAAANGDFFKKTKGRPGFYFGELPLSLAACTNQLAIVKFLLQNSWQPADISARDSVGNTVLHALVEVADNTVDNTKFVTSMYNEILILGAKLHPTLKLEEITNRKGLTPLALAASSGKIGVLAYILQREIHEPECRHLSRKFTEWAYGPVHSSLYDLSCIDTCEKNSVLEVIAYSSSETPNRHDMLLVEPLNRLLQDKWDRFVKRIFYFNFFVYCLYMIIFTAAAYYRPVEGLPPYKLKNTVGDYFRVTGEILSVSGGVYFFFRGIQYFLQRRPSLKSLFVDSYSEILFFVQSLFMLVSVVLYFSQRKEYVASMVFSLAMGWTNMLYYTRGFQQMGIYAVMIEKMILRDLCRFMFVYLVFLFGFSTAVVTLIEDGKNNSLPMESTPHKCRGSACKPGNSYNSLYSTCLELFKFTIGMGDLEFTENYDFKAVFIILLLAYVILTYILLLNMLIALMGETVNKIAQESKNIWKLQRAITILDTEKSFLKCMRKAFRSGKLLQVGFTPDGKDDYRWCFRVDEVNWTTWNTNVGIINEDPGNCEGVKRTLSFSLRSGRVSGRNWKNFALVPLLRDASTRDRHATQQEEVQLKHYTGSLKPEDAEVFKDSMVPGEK

Compound `Cc1nc2cc(C(C)C)c(-c3ccc(Cl)c(OCC4CC4)c3)cc2c(=O)[nH]1` has a Ct (Rattus norvegicus [1]) of 205 pmol/g, a Ct (Rattus norvegicus [2]) of 709 pmol/g and a concentration at 0.16 h [3] of 60 nM. The Papp [4] was 4.37 ×10⁻⁶ cm/s, the Activity [5] was “Dose-dependent effect” and the ED50 [6] was 4.7 mg/kg. For the same compound, the ED50 [7] was 2.6 mg/kg, the Cmax [8] was 1910 nM and the Tmax [9] was 4 h. The Cmax (Rattus norvegicus [10]) was 1079 pmol/g, the Tmax [11] was 0.5 h and the Cmax (Rattus norvegicus [12]) was 1666 pmol/g. The Tmax [13] was 4 h, the half-life [14] was 3.48 h and the half-life [15] was 3.5 h. For the same compound, the clearance [16] was 5.25 mL/min/kg, the Vd [17] was 1.55 L/kg and the bioavailability [18] was 75%. The concentration at 0.033 h [19] was 3540 nM, the concentration at 0.083 h [20] was 2650 nM and the concentration at 0.16 h [21] was 2200 nM. For the same compound, the concentration at 0.5 h [22] was 1180 nM, the concentration at 1 h [23] was 1330 nM and the concentration at 1.5 h [24] was 1120 nM. The concentration at 2 h [25] was 1080 nM, the concentration at 4 h [26] was 726 nM and the concentration at 6 h [27] was 488 nM. For the same compound, the Ct (Rattus norvegicus [28]) was 764 pmol/g, the Ct (Rattus norvegicus [29]) was 960 pmol/g and the Ct (Rattus norvegicus [30]) was 1079 pmol/g. The Ct (Rattus norvegicus [31]) was 351 pmol/g, the Ct (Rattus norvegicus [32]) was 449 pmol/g and the concentration at 0.5 h [33] was 599 nM. It also gave a concentration at 1 h [34] of 1530 nM, a concentration at 1.5 h [35] of 1790 nM and a concentration at 2 h [36] of 1420 nM. For the same compound, the concentration at 4 h [37] was 1910 nM and the concentration at 6 h [38] was 1860 nM.
